# Experimental data from ChEMBL document CHEMBL1201862, “PubChem BioAssay data set” (2004).
# Values joined by “and” are separate entries in the source; they are usually repeats but may differ in a detail not shown here. Equal entries are not always repeated.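 A five-concentration, 48-hour dose response in 96-well plates underlies each endpoint, interpolated linearly between surrounding concentrations. Here, GI50 denotes the concentration required for 50% inhibition of growth.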 Active and inactive are the calls of the source. Cut-off read from the data, not from the text of the source: active = GI50 up to about 1.1 µM and inactive = higher.
# What was measured:
# Experiment in all cases: NCI tumour cell line growth inhibition, 48 h
# DMS-114 = tested on: DMS-114
# DMS-273 = tested on: DMS-273
# HOP-18 = tested on: HOP-18
# M19-MEL = tested on: M19-MEL
# SNB-78 = tested on: SNB-78
# T47D = tested on: T47D
# LXFL 529 = tested on: LXFL 529
# BT-549 = tested on: BT-549
Compound,GI50 (DMS-114),GI50 (DMS-273),GI50 (HOP-18),GI50 (M19-MEL),GI50 (SNB-78),GI50 (T47D),GI50 (LXFL 529),GI50 (BT-549)
O=C1Cc2ccccc2N1/N=C\c1ccc([N+](=O)[O-])cc1,> 100 µM (inactive),> 100 µM (inactive),> 100 µM (inactive),> 100 µM (inactive),> 100 µM (inactive),–,–,–
CSC(=S)Nc1cc(C)ccn1,–,–,–,–,–,58.9 µM (inactive),–,–
O=C(OCc1ccccc1)c1ccccc1-c1c2ccc(=O)cc-2oc2cc(OCc3ccccc3)ccc12,–,7.03 µM (inactive),–,20.3 µM (inactive),22.6 µM (inactive),–,4.88 µM (inactive),–
CCOc1ccc2nc3cc(/N=N/c4ccc(N)nc4N)ccc3c(N)c2c1,–,–,–,–,–,1.67 µM (inactive),–,13.4 µM (inactive)
NC(=O)c1cn(Cc2ccccc2)c(=O)n1Cc1ccccc1,–,> 100 µM (inactive),> 100 µM (inactive),> 100 µM (inactive),> 100 µM (inactive),–,> 100 µM (inactive),–
CC1=NC(=N)N=C(C)C1/N=N/c1ccc2[nH]c(C)nc2c1 (stereo unspecified),–,–,–,–,–,> 100 µM (inactive),–,> 100 µM (inactive)
[N-]=[N+]=C1C(=O)C2CC3CC(C2)CC1C3,> 100 µM (inactive),> 100 µM (inactive),> 100 µM (inactive),> 100 µM (inactive),> 100 µM (inactive),–,> 100 µM (inactive),–
CC(=O)NC(Cc1ccc(OP(=O)(OCc2ccc([N+](=O)[O-])o2)N(C)CCCCCl)cc1)C(=O)NC(C)c1ccc(OCC2CCCCC2)c(C(N)=O)c1 (stereo unspecified),–,–,–,–,–,2.76 µM (inactive),–,–
Oc1nnc2c(-c3ccccc3)n[nH]c2n1,> 100 µM (inactive),> 100 µM (inactive),–,–,> 100 µM (inactive),–,> 100 µM (inactive),–
CCCNC(=O)C1C(=O)C(=O)N(CCC)C1=O (stereo unspecified),> 100 µM (inactive),> 100 µM (inactive),> 100 µM (inactive),> 100 µM (inactive),> 100 µM (inactive),–,> 100 µM (inactive),–
COC(=O)C(=O)C(C(=O)C(=O)Nc1cccc(OC)c1)c1nc2ccc(Cl)cc2nc1O (stereo unspecified),–,–,–,–,–,> 100 µM (inactive),–,> 100 µM (inactive)
O=C(O)c1ccc(Nc2nc3nn(Cc4ccccc4)cc3c(=O)s2)cc1,> 100 µM (inactive),> 100 µM (inactive),74.8 µM (inactive),> 100 µM (inactive),> 100 µM (inactive),–,> 100 µM (inactive),–
CC(C)C1=CCC2C(=C1)CCC1C(C)(C(=O)O)CCCC21C (stereo unspecified),–,–,–,–,–,> 100 µM (inactive),–,> 100 µM (inactive)
Cc1ccc(C2OC(COCc3ccc(Cl)cc3)C(OCc3ccc(Cl)cc3)C2O)cc1 (stereo unspecified),5.24 µM (inactive),5.82 µM (inactive),79.4 µM (inactive),11.4 µM (inactive),14.3 µM (inactive),–,8.47 µM (inactive),–
COC(=O)[C@@H]1CC(C(C[N+](=O)[O-])c2ccc(O[Si](C)(C)C(C)(C)C)cc2)C(=O)N1C(=O)OC(C)(C)C (stereo partly specified),–,–,–,–,–,22.1 µM (inactive) and 32.5 µM (inactive),–,–
O=[N+]([O-])c1cnc(N(CCO)CCO)s1,–,–,–,–,–,> 100 µM (inactive),–,–

Compound,GI50 (DMS-114),GI50 (DMS-273),GI50 (HOP-18),GI50 (M19-MEL),GI50 (SNB-78),GI50 (T47D),GI50 (LXFL 529),GI50 (BT-549)
NCCN1CCCCCc2ccccc21,–,–,–,–,–,> 10 µM (inactive),–,–
C/C=C/[P+](c1ccccc1)(c1ccccc1)c1ccccc1,–,–,–,–,–,0.163 µM (active),–,0.277 µM (active)
COc1ccc(/C=C2\N/C(=N/N)N=C2Cl)cc1,–,–,–,–,–,> 100 µM (inactive),–,–
Oc1cccc(C2SCc3nc4ccccc4n32)c1 (stereo unspecified),31 µM (inactive),47.1 µM (inactive),0.42 µM (active),–,> 100 µM (inactive),–,40.6 µM (inactive),–
CC(C)=CCC/C(C)=C/Cc1c2c(c3oc(-c4ccc(O)c(O)c4)c(O)c(=O)c3c1O)C=CC(C)(C)O2,–,–,–,–,–,1.65 µM (inactive),–,7.66 µM (inactive)
O=C(CCC(=O)Nc1cccc(Cl)c1)CC(=O)c1ccc(F)cc1,–,> 100 µM (inactive),–,–,> 100 µM (inactive),–,–,–
C#CCOC(=O)C(N)CS (stereo unspecified),–,–,–,–,–,> 100 µM (inactive),–,> 100 µM (inactive)
O=[N+]([O-])C(=C(NCc1ccccc1)NCc1ccccc1)C(Cl)=C(Cl)Cl,–,–,–,–,–,27.3 µM (inactive),–,34.4 µM (inactive)
CC(=O)O[C@]12CCCCCC1C1(O)C(O)CCCCC12 (stereo partly specified),> 100 µM (inactive),> 100 µM (inactive),–,> 100 µM (inactive),> 100 µM (inactive),–,> 100 µM (inactive),–
CCCCCCCCCCCCCCCCOCC(Cl)CP(=O)(O)OP(=O)(O)OCC1OC(n2cnc3c(N)ncnc32)C(O)C1O (stereo unspecified),–,–,–,–,–,> 100 µM (inactive),–,> 100 µM (inactive)
CCC(CCCCC1CC[C@H]2CC(=O)C[C@@H]12)OC (stereo partly specified),–,–,–,–,–,> 100 µM (inactive),–,> 100 µM (inactive)
COc1ccc(CC(C#N)c2cc(OC)c(OC)c(OC)c2)cc1 (stereo unspecified),0.0418 µM (active),0.0303 µM (active),–,0.0676 µM (active),0.227 µM (active),–,0.171 µM (active),11.9 µM (inactive)
C=C1C(=O)O[C@@H]2/C=C(/C)[C@@H](OC(C)=O)C[C@@H](O)/C(C)=C\[C@@H](OC(=O)[C@]3(C)O[C@@H]3C)[C@@H]12,–,–,–,–,–,11.1 µM (inactive),–,5.83 µM (inactive)
CN(C)Cc1cc(C(=O)/C=C/c2ccc(Cl)cc2Cl)cc(CN(C)C)c1O,–,–,–,–,–,5.01 µM (inactive),–,–
C[C@@H]1C[C@H](O)[C@]2(O)O[C@@H]3C[C@@]4(C=O)[C@@H](CC[C@@H]5[C@@H]4CC[C@]4(C)[C@@H](C6=CC(=O)OC6)CC[C@]54O)C[C@H]3O[C@@H]2O1 [CALOTROPIN],–,–,–,–,–,0.0303 µM (active),–,0.0231 µM (active)
